This note sets out measurements from publication PMC3004533 (Chemico-biological interactions, 2010).

In this experiment the target is T1, COX-2 (cyclooxygenase-2) (Homo sapiens, UniProt P35354).
T1 sequence (P35354 18-604): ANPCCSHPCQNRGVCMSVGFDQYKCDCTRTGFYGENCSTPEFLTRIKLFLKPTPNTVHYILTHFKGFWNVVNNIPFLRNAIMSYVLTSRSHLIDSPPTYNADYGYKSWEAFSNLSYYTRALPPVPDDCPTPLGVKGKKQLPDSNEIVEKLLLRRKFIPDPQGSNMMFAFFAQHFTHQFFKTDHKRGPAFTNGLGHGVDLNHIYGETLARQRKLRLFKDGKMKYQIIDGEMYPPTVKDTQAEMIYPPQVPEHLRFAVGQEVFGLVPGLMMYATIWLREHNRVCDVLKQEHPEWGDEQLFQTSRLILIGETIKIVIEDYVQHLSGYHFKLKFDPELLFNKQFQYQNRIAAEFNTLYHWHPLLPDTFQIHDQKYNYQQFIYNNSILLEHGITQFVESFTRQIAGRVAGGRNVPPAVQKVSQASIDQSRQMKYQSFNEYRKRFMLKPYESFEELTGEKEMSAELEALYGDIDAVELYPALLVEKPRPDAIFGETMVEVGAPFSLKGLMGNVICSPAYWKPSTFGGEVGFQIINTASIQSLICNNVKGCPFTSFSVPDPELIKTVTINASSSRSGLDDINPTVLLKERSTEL
In kind it is biochemical. The conditions noted are these: read-out: Ki.

SMILES strings stand for the structures.

Take `C[Se]Cc1ccc(-c2cc(C(F)(F)F)nn2-c2ccc(S(N)(=O)=O)cc2)cc1` [selenocoxib-3, 4-[5-(4-Methylseleanylmethyl-phenyl)-3-trifluoromethyl-pyrazol-1-yl]-benezenesulfonamide]: the KI (inactivation) amounted to 2400 nM.
The same measure for `Cc1ccc(-c2cc(C[Se]C#N)nn2-c2ccc(S(N)(=O)=O)cc2)cc1` [selenocoxib-2, 4-(3-Selenocyanatomethyl-5-p-tolyl-1-yl)-benzenesulfonamide]: 730 nM.
